# According to patent US8012979B2, “Compounds and their uses 707” (AstraZeneca AB, priority 2007, dated 2011):
# Target: T1, human active recombinant p38α-6His tagged (Homo sapiens, UniProt Q16539)
# T1 construct: 6His
# Assay: p38 Alpha Enzyme Assay (AlphaScreen, biotinylated-ATF2 substrate)
# Assay type: biochemical
# Settings: pre-incubated 4 hours at 37° C., reaction initiated with ATP; 0.5 nM enzyme; read-out: p38 pIC50 (converted)
# Protocol: The ability of the compounds of formula (I) to inhibit p38 kinase may be determined using the following biological assay:
# Enzyme assays were performed in polypropylene 96 well plates. The following solutions were added to each well; 10 μL of compound dilutions in assay buffer (20 mM HEPES pH 7.4, containing 20 mM magnesium acetate, 0.005% (w/v) Tween-20, 10 mM DTT) containing 1% (v/v) DMSO or assay buffer containing 1% (v/v) DMSO alone, 70 μL of assay buffer containing 36 nM substrate (biotinylated-ATF2) and 10 μL of an appropriate dilution of human active recombinant p38α-6His tagged. Depending on batch of p38, an appropriate dilution was typically a 5 nM solution to give a final enzyme concentration of 0.5 nM. At this stage, background control wells also received 50 μL of AlphaScreen quench buffer (10 mM HEPES pH 7.4 containing 100 mM EDTA, 0.2% (w/v) bovine serum albumin). The plate was covered, pre-incubated for 4 hours at 37° C. and the enzyme reaction initiated by addition of 10 μL 1 mM ATP. After incubation for a further 45 minutes at 37° C., the reaction was stopped by addition of 50 μL quench reagent and 50 μL of the quenched reaction mixture transferred to an opaque, white 96-well plate. Detection reagent, 25 μL of 10 mM HEPES pH 7.4 containing 100 mM EDTA, 0.2% (w/v) bovine serum albumin, 0.3 nM anti phosphoATF2 antibody and 25 μg/mL of ‘AlphaScreen protein A acceptor and donor beads’ (PerkinElmer Inc.), was added to all wells in a darkened room, the plate sealed and left in the dark for at least 5 hours before AlphaScreen readings were taken using a Perkin Elmer EnVision reader. Total, uninhibited activity was determined from assays performed in each assay plate. The mean control in the absence of p38 activity was subtracted from each well. Data were expressed as percent inhibition of total activity using equation 1. Percent Inhibition=100*(1−Test/Control) Eq.1 Where . . . . • Test=p38 kinase activity in the presence of compound • Control=p38 kinase activity in the absence of compound.
# pIC50 is defined as the logarithm of the reciprocal of the concentration of compound required for 50% reduction in total p38 kinase activity.
# T1 sequence (Q16539 whole entry): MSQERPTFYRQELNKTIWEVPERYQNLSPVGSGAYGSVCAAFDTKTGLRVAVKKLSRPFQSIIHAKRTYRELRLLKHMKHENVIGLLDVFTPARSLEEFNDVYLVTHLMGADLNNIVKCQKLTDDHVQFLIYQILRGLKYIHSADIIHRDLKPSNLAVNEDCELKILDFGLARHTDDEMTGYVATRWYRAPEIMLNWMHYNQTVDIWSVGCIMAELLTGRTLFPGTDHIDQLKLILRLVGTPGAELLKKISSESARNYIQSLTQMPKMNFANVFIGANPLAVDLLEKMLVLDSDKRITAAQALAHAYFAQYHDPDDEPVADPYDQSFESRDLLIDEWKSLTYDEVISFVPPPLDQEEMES
row,IC50,SMILES
1,0.1 nM,"Cc1c(F)cc(C(=O)NC2CC2)cc1-c1ccc2c(=O)n(CC3CC3)cc(CN3CCN(C)CC3)c2c1 [Example 76, N-Cyclopropyl-3-(2-(cyclopropylmethyl)-4-((4-methylpiperazin-1-yl)methyl)-1-oxo-1,2-dihydroisoquinolin-6-yl)-5-fluoro-4-methylbenzamide]"
2,5.01 nM,"Cc1ccc(C(=O)NC2CC2)cc1-c1ccc2c(=O)n(CC3CC3)cc(CN3CCC(N4CCCCC4)CC3)c2c1 [Example 62, 3-(4-(1,4′-Bipiperidin-1′-ylmethyl)-2-(cyclopropylmethyl)-1-oxo-1,2-dihydroisoquinolin-6-yl)-N-cyclopropyl-4-methylbenzamide]"
3,0.251 nM,"Cc1c(F)cc(C(=O)NC2CC2)cc1-c1ccc2c(=O)n(CC3CC3)cc(CN3CCNC[C@@H]3C)c2c1 [Example 118, (S)—N-Cyclopropyl-3-(2-(cyclopropylmethyl)-4-((2-methylpiperazin-1-yl)methyl)-1-oxo-1,2-dihydroisoquinolin-6-yl)-5-fluoro-4-methylbenzamide]"
4,0.794 nM,"Cc1c(F)cc(C(=O)NC2CC2)cc1-c1ccc2c(=O)n(CC3CC3)cc(CN3CCN[C@H](C)C3)c2c1 [Example 107, (R)—N-Cyclopropyl-3-(2-(cyclopropylmethyl)-4-((3-methylpiperazin-1-yl)methyl)-1-oxo-1,2-dihydroisoquinolin-6-yl)-5-fluoro-4-methylbenzamide]"
5,7.94 nM,"Cc1ccc(C(=O)NC2CC2)cc1-c1ccc2c(=O)n(CC3CC3)cc(CNC3CCN(C)CC3)c2c1 [Example 65, N-Cyclopropyl-3-(2-(cyclopropylmethyl)-4-((1-methylpiperidin-4-ylamino)methyl)-1-oxo-1,2-dihydroisoquinolin-6-yl)-4-methylbenzamide]"

# Further lines, the molecule ahead of its results:
row,SMILES,IC50
1,"Cc1ccc(C(=O)NC2CC2)cc1-c1ccc2c(=O)n(CC3CCC3)ccc2c1 [Example 124, 3-(2-(Cyclobutylmethyl)-1-oxo-1,2-dihydroisoquinolin-6-yl)-N-cyclopropyl-4-methylbenzamide]",3.98 nM
2,"CNCCN(C)Cc1cn(CC2CC2)c(=O)c2ccc(-c3cc(C(=O)NC4CC4)ccc3C)cc12 [Example 64, N-Cyclopropyl-3-(2-(cyclopropylmethyl)-4-((methyl(2-(methylamino)ethyl)amino)methyl)-1-oxo-1,2-dihydroisoquinolin-6-yl)-4-methylbenzamide]",3.16 nM
3,"CNCCOc1ccc(Cn2ccc3cc(-c4cc(C(=O)NC5CC5)ccc4C)ccc3c2=O)cc1 [Example 36, N-Cyclopropyl-4-methyl-3-(2-(4-(2-(methylamino)ethoxy)benzyl)-1-oxo-1,2-dihydroisoquinolin-6-yl)benzamide]",0.398 nM
4,"Cc1ccc(C(=O)NC2CC2)cc1-c1ccc2c(=O)n(CC3CC3)cc(C(=O)N3CCN(CCN(C)C)CC3)c2c1 [Example 46, N-Cyclopropyl-3-(2-(cyclopropylmethyl)-4-(4-(2-(dimethylamino)ethyl)piperazine-1-carbonyl)-1-oxo-1,2-dihydroisoquinolin-6-yl)-methylbenzamide]",25.1 nM
5,"CCC(CC)Cn1ccc2cc(-c3cc(C(=O)NC4CC4)ccc3C)ccc2c1=O [Example 123, N-Cyclopropyl-3-(2-(2-ethylbutyl)-1-oxo-1,2-dihydroisoquinolin-6-yl)-4-methylbenzamide]",3.16 nM
6,"Cc1ccc(C(=O)NC2CC2)cc1-c1ccc2c(=O)n(Cc3ccccc3)cc(CCCN(C)C)c2c1 [Example 99, 3-(2-Benzyl-4-(3-(dimethylamino)propyl)-1-oxo-1,2-dihydroisoquinolin-6-yl)-N-cyclopropyl-4-methylbenzamide]",0.398 nM
7,"Cc1ccc(C(=O)NC2CC2)cc1-c1ccc2c(=O)n(CC3CC3)cc(C(=O)N3CCC(N(C)C)CC3)c2c1 [Example 45, N-Cyclopropyl-3-(2-(cyclopropylmethyl)-(4-(dimethylamino)piperidine-1-carbonyl)-1-oxo-1,2-dihydroisoquinolin-6-yl)-4-methylbenzamide]",2.51 nM
